In paper PMC7747594, “Protease-activated receptor-2 ligands reveal orthosteric and allosteric mechanisms of receptor inhibition” (Communications Biology, 2020):

Experiments:
[1] = target: T1, PAR2 (F2RL1) (Homo sapiens, UniProt P55085); experiment: β-arrestin recruitment, DiscoverX profiling service, PAR2; format: cell-based; settings: for Max Response: in % (unit assumed)
T1 sequence (P55085 26-397): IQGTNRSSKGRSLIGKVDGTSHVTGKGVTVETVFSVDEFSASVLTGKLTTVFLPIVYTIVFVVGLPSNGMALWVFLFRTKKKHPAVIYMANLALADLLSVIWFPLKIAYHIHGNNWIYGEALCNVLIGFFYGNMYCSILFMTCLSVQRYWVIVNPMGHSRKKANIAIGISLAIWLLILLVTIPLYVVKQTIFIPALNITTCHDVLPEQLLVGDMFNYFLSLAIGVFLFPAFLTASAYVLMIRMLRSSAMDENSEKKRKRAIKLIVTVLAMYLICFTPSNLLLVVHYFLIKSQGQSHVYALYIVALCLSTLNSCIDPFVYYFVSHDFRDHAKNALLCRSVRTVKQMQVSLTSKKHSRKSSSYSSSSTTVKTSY

[2] = target: T2, PAR1 (F2R) (Homo sapiens, UniProt P25116); experiment: β-arrestin recruitment, DiscoverX profiling service, PAR1; format: cell-based
T2 sequence (P25116 22-425): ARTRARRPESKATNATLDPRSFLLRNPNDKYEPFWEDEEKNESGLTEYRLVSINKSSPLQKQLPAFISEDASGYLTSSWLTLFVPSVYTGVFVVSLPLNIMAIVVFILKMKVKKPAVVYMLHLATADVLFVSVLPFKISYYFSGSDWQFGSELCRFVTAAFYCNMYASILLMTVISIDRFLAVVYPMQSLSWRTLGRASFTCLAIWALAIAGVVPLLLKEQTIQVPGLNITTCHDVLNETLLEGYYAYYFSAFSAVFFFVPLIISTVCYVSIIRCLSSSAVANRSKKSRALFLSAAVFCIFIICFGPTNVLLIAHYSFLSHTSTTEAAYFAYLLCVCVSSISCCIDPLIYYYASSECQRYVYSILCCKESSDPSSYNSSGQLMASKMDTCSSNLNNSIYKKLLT

[3] = target: T3, PAR2 stabilised receptor (StaR) (Homo sapiens, UniProt P55085); settings: SPR, previously reported; cited from earlier work
T3 sequence (P55085 55-377): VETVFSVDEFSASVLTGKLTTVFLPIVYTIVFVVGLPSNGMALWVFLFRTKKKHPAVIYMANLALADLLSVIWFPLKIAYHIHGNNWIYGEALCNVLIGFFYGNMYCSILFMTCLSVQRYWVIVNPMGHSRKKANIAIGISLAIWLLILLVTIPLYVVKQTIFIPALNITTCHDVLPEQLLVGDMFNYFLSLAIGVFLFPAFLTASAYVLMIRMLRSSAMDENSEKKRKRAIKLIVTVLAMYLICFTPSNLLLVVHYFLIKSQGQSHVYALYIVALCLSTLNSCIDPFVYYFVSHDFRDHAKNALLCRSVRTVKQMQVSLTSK

Curve Bottom ([1]; Agonist format)	Curve Top ([1]; Agonist format)	Hill ([1]; Agonist format)	Max Response ([1]; Agonist format)	EC50 ([1]; Agonist format, read-out: RC50 (EC50)) [nM]	Max Response ([1]; Antagonist format)	IC50 ([1]; Antagonist format, read-out: RC50 (IC50)) [µM]	Max Response ([2]; Arrestin, Agonist format, F2R) [%]	EC50 ([2]; Arrestin, Agonist format, F2R, read-out: RC50 (EC50)) [µM]	Max Response ([2]; Arrestin, Antagonist format, F2R) [%]	IC50 ([2]; Arrestin, Antagonist format, F2R, read-out: RC50 (IC50)) [µM]	activity against PAR1 in β-arrestin-2 recruitment assay ([2]; DiscoverX profiling service)	SMILES	residence time [3]
-2	103.3	1.29	104.3	25	4.5	> 50	0	> 50	0	> 50	No AZ2429 activity was detected	CNC(=O)[C@H]1CC[C@@H](NC(=O)[C@H](CC2CCCCC2)NC(=O)c2cn(Cc3ccccc3)nn2)c2ccccc21 [AZ2429]	
												CCCc1cc(F)ccc1C(O)c1ncc[nH]1 (stereo not shown) [AZ8838]	about 84 min
